Target: T1, MBP-ARC (Maltose Binding Protein tagged Androgen Receptor C-termini) (Homo sapiens, UniProt P10275)
T1 construct: made in house; host or cells: E. coli DH5a
T1 sequence (P10275 609-919): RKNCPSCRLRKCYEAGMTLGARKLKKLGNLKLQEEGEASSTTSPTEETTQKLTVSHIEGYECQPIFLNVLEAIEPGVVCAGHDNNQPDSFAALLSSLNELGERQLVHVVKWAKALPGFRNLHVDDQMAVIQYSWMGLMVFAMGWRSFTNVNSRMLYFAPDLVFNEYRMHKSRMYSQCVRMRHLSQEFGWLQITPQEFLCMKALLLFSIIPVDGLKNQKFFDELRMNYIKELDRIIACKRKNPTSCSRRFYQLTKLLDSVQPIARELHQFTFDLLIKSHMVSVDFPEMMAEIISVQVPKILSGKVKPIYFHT
Experiment: in vitro binding assay - hydroxyapatite method ([3H]-DHT competition)
Settings: concentration of unlabeled test compound at which 50% of the [3H]-DHT is still bound to MBP-ARC; 2 nM [3H]-DHT, 50 µg/ml MBP-ARC, three hours
Protocol: 1.9 The in vitro binding assay - hydroxyapatite method
800 mM NaCl, 10 % glycerol, 1mg/ml BSA and 2mM DTT to obtain a 100 l mixture solution.
mixture solution was incubated at 4 for 3 hours.
After incubation, BioGel HT (Bio-Rad Laboratories) was added to the solution and incubated on ice
for 15 minutes, during which vortexing was done every 5 minutes. The incubated solution was centrifuged
at 1,000 rpm for a minute and a supernatant was removed.
A wash buﬀer consisting of 40 mM Tris-HCl pH 7.6, 100 mM KCl, 1mM EDTA and 1mM EGTA and
cooled on ice was added to the precipitate by 1 ml and mixed. The produced solution was centrifuged
at 1,000 rpm and a supernatant was removed. This process was repeated three times.
The collected precipitate was suspended in 3 ml Aquasol (New England nuclear Corp.). Radioactivity
of the suspended solution in a scintillation vial (Perkin Elmer) was measured by a liquid scintillation
test compounds was regarded as IC50 of the test compound.

- IC50: 80 µM
Compound: Cc1c(-c2ccc(NC(=O)C(C)(C)C)cc2)nc2ccc(Cl)cn12 [T5853872]
